The results in this text go back to US20230293560A1, “METHOD FOR MODULATING THE BLADDER MICROBIOME TO IMPROVE BLADDER HEALTH” (Kimberly-Clark Worldwide, Inc., priority 2020, published 2023).

Test [1] has as its system commensal and pathogenic bacterial species. Kind of test: Prebiotic screening, summary in words across species. It is filed as cell-based. Particulars: commensal (L. crispatus, L. gasseri, L. jensenii) and pathogenic (S. anginosus, E. faecalis) species. The essentials: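 Prebiotics at 2% w/v stock in API 50 CHL medium with bromocresol purple, inoculated with bacteria and read every 20 min for 24-48 h at OD430/590 (fermentation) and OD660 (growth), scored against a glucose control. Some tested on MRS-based agar with the prebiotic in place of glucose; competition assay with L. crispatus and S. anginosus incubated 48 h anaerobically at 37 °C, then enumerated on MRS and TSA.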

The test system of another test is E. faecalis. Kind of test: High throughput assay screening of prebiotics. Type of test: cell-based, Enterococcus faecalis. Further details: key: ++: if growth and fermentation was equal to or greater than the positive control; +: if growth and fermentation was less than the positive control; +: if weak or no growth or fermentation; +^2: Bacteria demonstrated growth but no fermentation on the prebiotic. Particulars: 2% w/v prebiotic in API 50 CHL media; for growth and fermentation vs positive control, Ef-2: E. faecalis KC16-7171-3, Bladder; for growth and fermentation vs positive control, Ef-3: E. faecalis KC17-3969-2B, Bladder; for growth and fermentation vs positive control, Ef-4: E. faecalis KC17-4331-3, Bladder. The method, then:
(§1) Most of the prebiotic compounds were initially tested in a high throughput assay screening process, described further in the Test Methods section herein, but three prebiotics (as noted in Table 3) were tested using a plate assay screening process as described in the Test Methods section herein. The prebiotics were tested against the commensal bacterial species of Lactobacillus crispatus, Lactobacillus gasseri, and Lactobacillus jensenii and against the pathogenic bacterial species of Streptococcus anginosus and Enterococcus faecalis as shown in Table 2. The bacterial species were taken from different sources, listed as culture collection, bladder, and vagina.
(§2) The results of the assay plate screening of the prebiotic compounds of Table 1 against the bacterial species of Table 2 is documented in Table 3 with the results being described by the following legend: • ++ if growth and fermentation was equal to or greater than the positive control • + if growth and fermentation was less than the positive control • […] if weak or no growth or fermentation • NT if not tested Some codes were not tested based on the use or non-use by the bacteria, as a way to efficiently move through the assay plate screening to the competition assay, described below.
(§3) • 1. Create a 2% w/v stock of prebiotic or positive control (glucose/dextrose) to be tested in API 50 CHL media (Biomerieux, Marcy-I'Étoile, France). API 50 CHL media contains minimal amounts of carbon for growth, and a bromocresol purple as a pH indicator of fermentation. Filter sterilize media with a […]. Store at 4-6° C. until use. • 2. Add 180 μL of media containing the prebiotic to a sterile, flat bottom 96-well microtiter plate (Corning, Corning, NY). • 3. From a freezer stock subculture the bacteria twice into De Man, Rogosa and Sharpe (MRS) broth (BD Difco, Becton Dickinson, Franklin Lakes, NJ), 37° C., stationary, anaerobic, overnight. • 4. From the last subculture, plate onto an MRS agar plate (Teknova, Hollister, CA) and grow 37° C., stationary, anaerobic, overnight. • 5. Create a bacterial suspension by using a sterile tipped swab to transfer colonies of bacteria into a PBS suspension blank to a 0.5 MacFarland (S. anginosus or E. faecalis) or a 1 MacFarland (Lactobacillus species) from the MRS agar plate. • 6. Enumerate the starting culture. • 7. Inoculate the media alone and media containing the prebiotic or positive control with 20 μL of the bacterial suspension. • 8. Place the plate into a spectrophotometer (Molecular Devices, San Jose, CA) and read the plate every 20 minutes for 24-48 hours. Read wavelengths (OD 430, OD 590, and OD 660). A color change to yellow caused by a drop in pH will be read by an increase in the OD430 value and a decrease in the OD590 value and is indicative of bacterial fermentation. An increase in OD660 values is indicative of an increase in turbidity and bacterial growth.

For the next test, the system named is L. jensenii. The test is described as follows: High throughput assay screening of prebiotics. Further details: key: ++: if growth and fermentation was equal to or greater than the positive control; +: if growth and fermentation was less than the positive control; +: if weak or no growth or fermentation; +^2: Bacteria demonstrated growth but no fermentation on the prebiotic. The settings on record: 2% w/v prebiotic in API 50 CHL media; for growth and fermentation vs positive control, Lj-1: L. jensenii KC17-4297-18, Bladder; for growth and fermentation vs positive control, Lj-2: L. jensenii KC17-4347-1, Bladder. Type of test: cell-based, Lactobacillus jensenii. The method, then: as §1, §2, §3

The test system of another test is S. anginosus. Kind of test: High throughput assay screening of prebiotics. It is filed as cell-based, Streptococcus anginosus. The settings on record: 2% w/v prebiotic in API 50 CHL media; for growth and fermentation vs positive control, Sa-2: S. anginosus KC18-1131-3B, Bladder. The arrangement: key: ++: if growth and fermentation was equal to or greater than the positive control; +: if growth and fermentation was less than the positive control; +: if weak or no growth or fermentation; +^2: Bacteria demonstrated growth but no fermentation on the prebiotic. Here is the method: as §1, §2, §3

Another test concerns L. gasseri. The test is described as follows: High throughput assay screening of prebiotics. The settings on record: 2% w/v prebiotic in API 50 CHL media; for growth and fermentation vs positive control, Lg-1: L. gasseri KC16-7135-1, Bladder; for growth and fermentation vs positive control, Lg-2: L. gasseri KC16-7171-1, Bladder; for growth and fermentation vs positive control, Lg-3: L. gasseri KC18-1131-2, Bladder; for growth and fermentation vs positive control, Lg-4: L. gasseri KC18-1142-2, Bladder. It is filed as cell-based, Lactobacillus gasseri. Further details: key: ++: if growth and fermentation was equal to or greater than the positive control; +: if growth and fermentation was less than the positive control; +: if weak or no growth or fermentation; +^2: Bacteria demonstrated growth but no fermentation on the prebiotic. The method, then: as §1, §2, §3

In the next test the test system is L. crispatus. The test is described as follows: High throughput assay screening of prebiotics. Type of test: cell-based, Lactobacillus crispatus. Further details: key: ++: if growth and fermentation was equal to or greater than the positive control; +: if growth and fermentation was less than the positive control; +: if weak or no growth or fermentation; +^2: Bacteria demonstrated growth but no fermentation on the prebiotic. The settings on record: 2% w/v prebiotic in API 50 CHL media; for growth and fermentation vs positive control, Lc-2: L. crispatus KC16-7134-3C, Bladder; for growth and fermentation vs positive control, Lc-3: L. crispatus KC18-1173-1, Bladder; for growth and fermentation vs positive control, Lc-4: L. crispatus KC18-1174-1, Vagina. The method, then:
as §1, §2, §3

With `OC[C@H]1O[C@](O)(CO)[C@@H](O)[C@@H]1O` [Beta-D-fructose, Beta-D-Fructose], the “overall outcome of the screening of Table 3, in words” value (from here on “overall outcome”) in test [1] is on record as “able to provide growth on the commensal bacterial species, but also provided growth on the pathogenic bacterial species”. In the test on E. faecalis, the “growth and fermentation vs positive control, Ef-2” value is on record as “++”; the “growth and fermentation vs positive control, Ef-3” value is recorded as “++”; the “growth and fermentation vs positive control, Ef-4” value is “++”. For the same compound, in the test on L. jensenii, the “growth and fermentation vs positive control, Lj-1” value is recorded as “++”; the “growth and fermentation vs positive control, Lj-2” value is given as “+”. Besides, the “growth and fermentation vs positive control, Lj-3” value in the test on L. jensenii (L. jensenii KC17-4368-2, Bladder) is reported as “++”. In addition, the “growth and fermentation vs positive control, Sa-2” value in the test on S. anginosus is “++”. For the same compound, in the test on L. gasseri, the “growth and fermentation vs positive control, Lg-1” value is “+”; the “growth and fermentation vs positive control, Lg-2” value is “+”; the “growth and fermentation vs positive control, Lg-3” value is on record as “+”; the “growth and fermentation vs positive control, Lg-4” value is listed as “+”. For the same compound, in the test with L. crispatus, the “growth and fermentation vs positive control, Lc-2” value was “++”; the “growth and fermentation vs positive control, Lc-3” value is recorded as “++”; the “growth and fermentation vs positive control, Lc-4” value was “++”.
Consider Maltotriose, for which the “overall outcome” value in test [1] was “able to provide growth on the commensal bacterial species, but also provided growth on the pathogenic bacterial species”. Besides, the “growth and fermentation vs positive control, Ef-1” value in the test with E. faecalis (E. faecalis ATCC BAA-2128, Culture Collection) is on record as “++”. Besides, in the test on E. faecalis, the “growth and fermentation vs positive control, Ef-2” value was “++”; the “growth and fermentation vs positive control, Ef-3” value is reported as “++”; the “growth and fermentation vs positive control, Ef-4” value is “++”. Further, the “growth and fermentation vs positive control, Lj-2” value in the test with L. jensenii is listed as “++”. Besides, in the test on S. anginosus (S. anginosus ATCC 33397, Culture Collection), the “growth and fermentation vs positive control, Sa-1” value is on record as “++”. For the same compound, the “growth and fermentation vs positive control, Sa-2” value in the test with S. anginosus was “++”. In the test with L. gasseri, the “growth and fermentation vs positive control, Lg-1” value is “++”; the “growth and fermentation vs positive control, Lg-2” value is “++”. In addition, the “growth and fermentation vs positive control, Lc-1” value in the test on L. crispatus (L. crispatus ATCC 33820, Culture Collection) is “++”. In the test with L. crispatus, the “growth and fermentation vs positive control, Lc-2” value is recorded as “++”; the “growth and fermentation vs positive control, Lc-3” value is given as “++”; the “growth and fermentation vs positive control, Lc-4” value is reported as “++”.
On to `OC[C@H]1O[C@@H](O[C@H]2[C@H](O)[C@@H](O)[C@H](O)O[C@@H]2CO)[C@H](O)[C@@H](O)[C@@H]1O` [D-Cellobiose], for which the “overall outcome” value in test [1] is listed as “able to provide growth on the commensal bacterial species, but also provided growth on the pathogenic bacterial species”. In the test with E. faecalis, the “growth and fermentation vs positive control, Ef-2” value is “++”; the “growth and fermentation vs positive control, Ef-3” value is “++”; the “growth and fermentation vs positive control, Ef-4” value is “++”. Also, the “growth and fermentation vs positive control, Lj-1” value in the test on L. jensenii is on record as “+”. Moreover, the “growth and fermentation vs positive control, Sa-2” value with S. anginosus is listed as “++”. Further, in the test on L. gasseri, the “growth and fermentation vs positive control, Lg-1” value is listed as “+”; the “growth and fermentation vs positive control, Lg-2” value was “++”; the “growth and fermentation vs positive control, Lg-3” value is “++”; the “growth and fermentation vs positive control, Lg-4” value is recorded as “++”. In addition, in the test with L. crispatus, the “growth and fermentation vs positive control, Lc-2” value is listed as “++”; the “growth and fermentation vs positive control, Lc-3” value is “+”; the “growth and fermentation vs positive control, Lc-4” value is given as “+”.
